Experimental data from US8524730B2, “Spirochromanone carboxylic acids” (MSD K.K., priority 2008, dated 2013).

Columns and labels:
human ACC2 = human ACC2 (Homo sapiens, UniProt O00763); assay: Acetyl CoA carboxylase (ACC) activity inhibition test, human ACC2; type: biochemical; conditions: 1 μmol/liter compound; read-out: Inhibition (%) by 1 μmol/liter Chemical, human ACC2
Method: (§1) A. Pharmacological Test Example (Acetyl CoA Carboxylase (ACC) Activity Inhibition Test)
(§2) A test compound is dissolved in dimethyl sulfoxide (DMSO) to a concentration of 10 mM and then diluted with DMSO to give a 100-fold concentrated solution of the compound compared with target assay concentration. The ACC enzyme activity inhibition test is carried out according to a modification of Thampy & Wakil's method (J. Biol. Chem., Vol. 260, pp. 6318-6323 (1985)). Concretely, 0.8 μl of the diluted test compound is added to each well of 96-well assay plate (Perkin Elmer Opti Plate), then 40 μl of a substrate solution (50 mM Hepes sodium (pH 7.5), 2 mM DTT, 10 mM ATP, 500 μM acetyl CoA, 0.17 mM NaH[^14C]O3 (58 mCi/mmol by Amersham), 8 mM NaHCO3) is added to each well, and 40 μL of an enzyme solution (1 to 2 nM human ACC1 or human ACC2, 50 mM Hepes sodium (pH 7.5), 2 mM DTT, 40 mM MgCl2, 40 mM tripotassium citrate 1 mg/ml fetal bovine serum albumin) is added thereto. Then, the upper side of the plate is sealed up, and the plate is incubated with gently stirring at 37° C. for 40 minutes. Next, 20 μl of 1 N HCl is added to each well to stop the enzyme reaction, and the assay plate is stirred overnight to remove the unreacted NaH[^14C]O3. Next, 100 μl of a scintillator (Perkin Elmer's Microscinti 40) is added to each well and the plate is stirred, then the radioactivity of the fixed [^14C] is counted using a microplate scintillation counter (Perkin Elmer's Topcount), the radioactivity of which represents the enzyme activity in each well. The human ACC1 and human ACC2 enzyme-inhibition activities of the test compounds are calculated, based on the radioactivity of the well added by DMSO without test compound as a control.

human ACC1 = human ACC1 (Homo sapiens, UniProt Q13085); assay: Acetyl CoA carboxylase (ACC) activity inhibition test, human ACC1; type: biochemical; conditions: 1 μmol/liter compound; read-out: Inhibition (%) by 1 μmol/liter Chemical, human ACC1
Method: as §1, §2

Sequence of human ACC2 (O00763 whole entry): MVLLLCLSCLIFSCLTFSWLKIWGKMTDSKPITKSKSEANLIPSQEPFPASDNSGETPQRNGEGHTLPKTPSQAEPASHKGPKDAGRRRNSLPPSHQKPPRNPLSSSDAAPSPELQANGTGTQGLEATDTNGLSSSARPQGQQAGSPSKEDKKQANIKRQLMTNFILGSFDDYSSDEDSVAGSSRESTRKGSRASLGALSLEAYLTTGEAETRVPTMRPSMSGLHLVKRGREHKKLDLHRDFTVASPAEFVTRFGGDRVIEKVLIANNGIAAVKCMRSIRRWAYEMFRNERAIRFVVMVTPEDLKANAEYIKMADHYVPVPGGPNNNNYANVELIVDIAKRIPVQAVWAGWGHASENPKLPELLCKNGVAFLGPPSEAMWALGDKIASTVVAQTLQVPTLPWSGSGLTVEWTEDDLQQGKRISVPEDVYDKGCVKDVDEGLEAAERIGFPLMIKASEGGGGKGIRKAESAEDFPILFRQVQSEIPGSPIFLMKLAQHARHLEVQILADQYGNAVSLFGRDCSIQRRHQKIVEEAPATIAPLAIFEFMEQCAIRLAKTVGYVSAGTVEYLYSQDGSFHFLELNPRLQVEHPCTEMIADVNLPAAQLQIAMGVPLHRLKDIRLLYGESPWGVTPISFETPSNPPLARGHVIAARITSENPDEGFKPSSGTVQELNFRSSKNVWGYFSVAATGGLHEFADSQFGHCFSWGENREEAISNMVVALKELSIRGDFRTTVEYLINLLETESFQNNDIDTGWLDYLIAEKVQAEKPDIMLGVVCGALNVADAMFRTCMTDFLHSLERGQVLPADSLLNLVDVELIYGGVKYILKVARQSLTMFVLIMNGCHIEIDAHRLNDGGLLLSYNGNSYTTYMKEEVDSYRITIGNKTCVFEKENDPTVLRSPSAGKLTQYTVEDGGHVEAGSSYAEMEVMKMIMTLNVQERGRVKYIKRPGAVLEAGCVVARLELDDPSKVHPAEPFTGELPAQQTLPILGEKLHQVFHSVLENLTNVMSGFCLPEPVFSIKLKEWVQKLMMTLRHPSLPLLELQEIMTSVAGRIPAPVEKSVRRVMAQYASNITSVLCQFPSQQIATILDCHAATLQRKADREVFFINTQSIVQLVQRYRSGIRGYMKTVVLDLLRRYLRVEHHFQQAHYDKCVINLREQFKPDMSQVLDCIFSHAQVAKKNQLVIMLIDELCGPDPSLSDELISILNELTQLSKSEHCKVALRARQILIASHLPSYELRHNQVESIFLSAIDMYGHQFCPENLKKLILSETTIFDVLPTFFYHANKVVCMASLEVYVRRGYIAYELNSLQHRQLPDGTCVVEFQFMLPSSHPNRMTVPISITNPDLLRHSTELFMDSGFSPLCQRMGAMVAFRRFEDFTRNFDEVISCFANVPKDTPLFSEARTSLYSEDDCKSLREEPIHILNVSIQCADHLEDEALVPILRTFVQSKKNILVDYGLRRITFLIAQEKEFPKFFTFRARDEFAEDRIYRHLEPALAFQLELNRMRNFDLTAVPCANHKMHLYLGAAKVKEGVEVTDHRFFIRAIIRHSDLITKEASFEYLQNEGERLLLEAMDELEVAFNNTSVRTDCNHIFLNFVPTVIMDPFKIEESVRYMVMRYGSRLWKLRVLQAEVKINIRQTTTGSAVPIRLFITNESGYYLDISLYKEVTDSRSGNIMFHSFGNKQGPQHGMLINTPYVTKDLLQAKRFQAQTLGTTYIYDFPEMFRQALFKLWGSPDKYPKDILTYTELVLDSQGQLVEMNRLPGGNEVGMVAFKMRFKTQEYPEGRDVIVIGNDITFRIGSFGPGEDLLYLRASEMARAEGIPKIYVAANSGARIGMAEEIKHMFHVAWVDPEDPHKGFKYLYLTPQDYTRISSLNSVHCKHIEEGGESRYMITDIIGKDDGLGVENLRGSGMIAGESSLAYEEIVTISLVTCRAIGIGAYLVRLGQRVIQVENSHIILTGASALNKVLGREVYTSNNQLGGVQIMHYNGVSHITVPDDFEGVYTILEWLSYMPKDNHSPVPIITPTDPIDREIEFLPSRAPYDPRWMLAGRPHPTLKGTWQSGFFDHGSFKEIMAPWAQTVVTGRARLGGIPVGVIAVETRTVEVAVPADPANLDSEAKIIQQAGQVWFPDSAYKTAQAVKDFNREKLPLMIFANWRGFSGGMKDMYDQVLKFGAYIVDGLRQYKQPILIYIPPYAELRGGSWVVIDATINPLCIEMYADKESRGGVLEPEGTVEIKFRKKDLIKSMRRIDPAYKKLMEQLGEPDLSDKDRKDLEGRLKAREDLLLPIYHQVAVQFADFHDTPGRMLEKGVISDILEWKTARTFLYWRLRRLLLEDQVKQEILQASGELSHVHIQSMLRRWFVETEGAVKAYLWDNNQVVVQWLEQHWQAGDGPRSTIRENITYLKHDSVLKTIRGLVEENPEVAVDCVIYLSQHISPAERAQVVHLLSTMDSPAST

Compound	inhibition at 1 µM (human ACC2) [%]	inhibition at 1 µM (human ACC1) [%]
CCOc1cc(C(=O)N2CCC3(CC2)CC(=O)c2cc(-c4ccc(C(N)=O)cc4)ccc2O3)cc(OCC)c1-c1ccc(C(=O)O)cc1 [Example 3, 4′-({6-(4-Carbamoylphenyl)-4-oxospiro[chroman-2,4′-piperidin]-1′-yl}carbonyl)-2′,6′-diethoxybiphenyl-4-carboxylic acid]	99	100
CCOc1cc(C(=O)N2CCC3(CC2)CC(=O)c2cc(-c4ccc(C(N)=O)cn4)ccc2O3)cc(OCC)c1-c1ccc(C(=O)O)cc1 [Example 5]	99	98
CCOc1cc(C(=O)N2CCC3(CC2)CC(=O)c2cc(-c4cnn(C)c4)ccc2O3)cc(OCC)c1-c1cncc(C(=O)O)c1 [Example 21, 5-(2,6-Diethoxy-4-{[6-(1-methyl-1H-pyrazol-4-yl)-4-oxospiro[chroman-2,4′-piperidin]-1′-yl]carbonyl}phenyl)nicotinic acid]	100	100

Now from value to molecule:

inhibition at 1 µM (human ACC2) [%]	inhibition at 1 µM (human ACC1) [%]	Compound
100	99	CCOc1cc(C(=O)N2CCC3(CC2)CC(=O)c2cc(-c4cnn(C)c4)ccc2O3)cc(OCC)c1-c1ccc(C(=O)O)cc1 [Example 18, Sodium 2′,6′-diethoxy-4′-{[6-(1-methyl-1H-pyrazol-4-yl)-4-oxospiro[chroman-2,4′piperidin]-1′-yl]carbonyl}biphenyl-4-carboxylate]
99	99	Cc1nn(-c2ccc(C(=O)O)cc2)c2ccc(C(=O)N3CCC4(CC3)CC(=O)c3cc(-c5cnn(C)c5)ccc3O4)cc12 [Example 13, 4-(3-Methyl-5-{[6-(1-methyl-1H-pyrazol-4-yl)-4-oxospiro[chroman-2,4′-piperidin]-1′-yl]carbonyl}-1H-indazol-1-yl)benzoic acid]
99	100	CCOc1cc(C(=O)N2CCC3(CC2)CC(=O)c2cc(-c4cnn(C)c4)ccc2O3)cc(OCC)c1-c1cccc(C(=O)O)c1 [Example 20, Sodium 2′,6′-diethoxy-4′-{[6-(1-methyl-1H-pyrazol-4-yl)-4-oxospiro[chroman-2,4′-piperidin]-1′-yl]carbonyl}biphenyl-3-carboxylate]
